Experiments:
[1] = Particle size, PdI and zeta potential of mRNA-encapsulating LNPs by dynamic light scattering (Experimental Example 6); format: physicochemical; conditions: mRNA-encapsulating LNP; for zeta potential (mV): cationic lipid:DOPC:Chol=49:7.5:42.5:1, dispersion in TBS (Tables 8-1, 8-2); for PdI / particle size (nm): cationic lipid:DOPC:Chol=49:7.5:42.5:1, dispersion in TBS, dynamic light scattering (Tables 8-1, 8-2)
Description: An acidic buffer solution (total amount: 1300 µL) of nucleic acid was prepared by weighing 6.5 µg of mRNA solution (0.6 mg/mL) in a 5 mL tube and adding acidic citrate buffer (20 mM, pH 5.0).
An acidic buffer solution of nucleic acid and an ethanol solution of lipid were each weighed in a syringe. […] The obtained concentrate was diluted with TBS to a lipid concentration of 2 mM to give a dispersion containing LNP.
The particle size, PdI (Polydispersity Index), and zeta potential of the mRNA-encapsulating LNP prepared by the method of the above-mentioned 1 were measured by a dynamic light scattering method (Zetasizer Nano; Malvern). […]

[2] = tested on: mouse red blood cells; experiment: Hemolysis activity (membrane fusion ability) at pH 7.4 and 5.5 (Experimental Example 8); format: cell-based, ICR mice
Description: LNP encapsulating mRNA that expresses luciferase (cationic lipid:DOPC:Chol:DMG-PEG2k = 52.5:7.5:40:1.5 (molar ratio)) was prepared by the method described in […], 1. As cationic lipid, the cationic lipid of Comparative Example, compound 94, compound 112, compound 162, compound 181, or compound 194 was used.
(§1) The collected blood was immediately mixed with 1.0 µL of heparin solution (5000 U/5 mL). About 9 mL of PBS was added to the blood to make the total volume 10 mL. The mixture was then mixed by inversion and centrifuged (4°C, 400 g, 10 min). The supernatant containing plasma components was removed using a Pasteur pipette. About 9 mL of PBS was added to the blood cell components to make the total volume 10 mL, and the mixture was centrifuged again. A similar washing procedure was repeated 4 times to obtain mouse red blood cells.
(§2) 2, 4, 6, 8, and 10 µL of mouse red blood cells were weighed and diluted with PBS containing 1 w/v% Triton-X100. The entire diluted solution was transferred to a clear 96-well plate, and the absorbance at 545 nm was measured using a plate reader. A calibration curve was created using these samples, and the point where the absorbance reached 1 was determined as the amount of blood cells to be used in the hemolysis assay. Empty LNP solution was weighed into an Eppendorf tube and diluted with malic acid-PBS buffer (pH 5.5, pH 7.4), followed by addition of mouse red blood cells. The final lipid concentration was 100 µM at pH 7.4 and 33.3 µM at pH 5.5, and the final volume of the solution was 250 µL. Each tube was shaken at 1900 rpm for 15 min. Each sample was centrifuged under centrifugation conditions (4°C, 400 g, 5 min), and 100 µL of the supernatant was transferred to a clear 96-well plate and the absorbance at 545 nm was measured. Untreated red blood cells were used as the negative control. 1 w/v% Triton-X was used as the positive control. The hemolysis activity of each sample was calculated using the following formula: Hemolysis activity (%) = 100×(absorbance of each sample - absorbance of negative control)/(absorbance of positive control - absorbance of negative control).

[3] = Particle size, PdI and zeta potential of mRNA-encapsulating LNPs by dynamic light scattering (Experimental Example 2); format: physicochemical
Description: An acidic buffer solution (total amount: 1080 µL) of nucleic acid was prepared by weighing 7.2 µg of mRNA solution (0.6 mg/mL) in a 5 mL tube and adding acidic malate buffer (20 mM, pH 3.0).
An acidic buffer solution of nucleic acid and an ethanol solution of lipid were each weighed in a syringe.
The particle size, PdI (Polydispersity Index), and zeta potential of the mRNA-encapsulating LNP prepared by the method of the above-mentioned 1 were measured by a dynamic light scattering method (Zetasizer Nano; Malvern).

[4] = tested on: liver; experiment: In vivo gene expression, luciferase luminescence in the liver after tail vein administration (Experimental Example 4); conditions: BALB/c mouse, mRNA 0.05 mg/kg; for amount of luminescence (photons/sec) in liver: tail vein, 4.5 hr after administration, LNP cationic lipid:DOPC:Chol:DMG-PEG2k = 52.5:7.5:40:1.5, prepared as in Experimental Example 2; for relative amount of luminescence: liver luminescence relative to cationic lipid of Comparative Example
Description: LNP encapsulating mRNA that expresses luciferase (cationic lipid:DOPC:Chol:DMG-PEG2k = 52.5:7.5:40:1.5 (molar ratio)) was prepared by the method described in [Experimental Example 2], 1.
(§3) The prepared each mRNA-encapsulating LNP dispersion was administered from the tail vein of BALB/c mouse (male, 5-week-old). The dose of mRNA was set to 0.05 mg per 1 kg body weight of the mouse, and the dose of the mRNA-encapsulating LNP dispersion was set to 10 µL per 1 g body weight of the mouse. After 4.5 hr from the administration of the mRNA-encapsulating LNP dispersion, a PBS solution of D-luciferin potassium was administered into the abdominal cavity of the mouse. The dose of D-luciferin potassium was set to 3 mg per mouse, and the dose of the PBS solution of D-luciferin potassium was set to 200 µL per mouse. After 15 min from the administration of the PBS solution of D-luciferin potassium, the mouse was euthanized, and the liver was isolated. The luminescence in the liver was quantified using an in vivo imaging system (IVIS) with an exposure of 10 sec. The amount of luminescence in the liver was quantified by image analysis using Live Imaging software attached to IVIS. The amount of luminescence (photons/sec) was calculated from the acquired image and used as an index of gene expression activity. The cationic lipids used, the luminescence intensity in the liver, and the relative luminescence intensity (= luminescence intensity in the liver when cationic lipid of Example was used/luminescence intensity in the liver when cationic lipid of Comparative Example was used) are shown in Table 7-1 to Table 7-3. "E+0a" (a: integer) indicated in Table 7-1 to Table 7-3 means "10^a". For example, "3.94E+09" means "3.94×10^9". […]

[5] = tested on: liver; experiment: In vivo gene expression, luciferase luminescence in the liver after tail vein administration (Experimental Example 7); conditions: BALB/c mouse, mRNA 0.05 mg/kg; for amount of luminescence (photons/sec) in liver: tail vein, 4.5 hr after administration, LNP cationic lipid:DOPC:Chol:DMG-PEG2k = 52.5:7.5:40:1.5, prepared as in Experimental Example 6; for relative amount of luminescence: liver luminescence relative to cationic lipid of Comparative Example
Description: LNP encapsulating mRNA that expresses luciferase (cationic lipid:DOPC:Chol:DMG-PEG2k = 52.5:7.5:40:1.5 (molar ratio)) was prepared by the method described in [Experimental Example 6], 1.
as §3, with “9.” for “7-1 to Table 7-3. "E+0a" (a: integer) indicated in Table 7-1 to Table 7-3 means "10^a".”

[6] = Measurement of Liposomal pKa (TNS fluorescence, LNP without nucleic acid); conditions: cationic lipid:DOPC:Chol = 52.5:7.5:40 (molar ratio) + DMG-PEG2k about 1.5 mol, pH at which the relative fluorescence intensity was 50%
Description: Lipid nano particles (LNP) without containing nucleic acid were used for the evaluation of Liposomal pKa.
To the obtained mixture was further added DMG-PEG2k (2 mM ethanol solution) in an amount of about 1.5 mol with respect to the total amount 100 mol of cationic lipid, DOPC, and Chol, and then ethanol was added to prepare an ethanol solution of the lipid (total amount: 360 µL).
An acidic malic acid buffer (20 mM, pH 3.0) (1080 µL) containing NaCl at a final concentration of 30 mM and an ethanol solution (360 µL) of lipid were each weighed in a syringe. Using an ultra high-speed nanomedicament producing apparatus NanoAssmblr (manufactured by Precision NanoSystems), LNP was prepared under the conditions of addition rate of acidic buffer solution: 3 mL/min, addition rate of ethanol solution of lipid: 1 mL/min, and syringe holder temperature: 25°C, and collected in a 15 mL tube. […]
20 mM Citrate buffer, sodium phosphate buffer, and tris HCl buffer, each containing NaCl at a final concentration of 150 mM and adjusted to various pHs within the range of pH 3.0 to 10.0, were prepared. […] The relative fluorescence intensity was calculated as a percentage, with the maximum value of the fluorescence intensity in each LNP being 100% and the minimum value being 0%.

[7] = tested on: mouse red blood cells; experiment: Hemolysis activity (membrane fusion ability) at pH 7.4 and 5.5 (Experimental Example 5); format: cell-based, ICR mice
Description: LNPs encapsulating mRNA that expresses luciferase (cationic lipid:DOPC:Chol:DMG-PEG2k=52.5:7.5:40:1.5 (molar ratio)) were prepared using the method described in [Experimental Example 2] 1. As cationic lipid, the cationic lipid of Comparative Example, compound 9, compound 14, compound 27, compound 33, or compound 42 was used.
as §1
as §2, with “1 w/v% Triton-X was used as the positive control.” left out

[8] = tested on: HeLa cells; experiment: In vitro gene expression in HeLa cells (luciferase mRNA-encapsulating LNP, cumulative luminescence in 24 hr)
Description: LNP encapsulating mRNA that expresses luciferase (cationic lipid:DOPC:Chol:DMG-PEG2k = 50:10:40:1 (molar ratio)) was prepared by the method described in [Experimental Example 2], 1.
HeLa cells, which are human cervical cancer cells, were seeded in a 3.5 cm dish at 5.0×10^4 cells/2 mL/Dish 24 hours before transfection. After 24 hr, the medium was changed to a culture medium (D-MEM) containing 0.1 mM D-luciferin. The prepared mRNA-encapsulating LNP was diluted with PBS to an mRNA concentration of about 1 µg/mL. The diluted mRNA-encapsulating LNP solution (about 200 µL, mRNA: 0.2 µg) was added to a 3.5 cm dish, and set in an incubator luminometer KronosDio. The luminescence intensity of luciferase was measured for 2 min every one hour. The cumulative luciferase luminescence intensity in 24 hr was calculated from the obtained time change of expression. […] In Comparative Example, the cationic lipid described in Table 2 was used.

[9] = pH of the endosomal environment (5.5), final lipid concentration 33.3 µM, Fig. 4, versus LNP of Comparative Example
[10] = physiological pH (7.4), final lipid concentration 100 µM, Fig. 3
[11] = mRNA-encapsulating LNP containing the cationic lipid, dispersion in PBS (Table 5-3)
[12] = mRNA-encapsulating LNP containing the cationic lipid, dispersion in PBS, dynamic light scattering (Table 5-3)

SMILES	zeta potential (mV) [1]	PdI [1]	particle size (nm) [1]	hemolysis activity [2, 9]	hemolysis activity [2, 10]	zeta potential (mV) [3, 11]	PdI [3, 12]	particle size (nm) [3, 12]	amount of luminescence (photons/sec) in liver [4]	relative amount of luminescence [4]	amount of luminescence (photons/sec) in liver [5]	relative amount of luminescence [5]	Liposomal pKa [6]	hemolysis activity ([7]; pH of the endosomal environment (5.5), final lipid concentration 33.3 µM, Fig. 2, versus LNP of Comparative Example)	hemolysis activity ([7]; physiological pH (7.4), final lipid concentration 100 µM, Fig. 1)	PdI ([3]; mRNA-encapsulating LNP, cationic lipid:DOPC:Chol = 50:10:40 (molar ratio) + DMG-PEG2k about 1 mol, Polydispersity Index, dynamic light scattering)	zeta potential (mV) ([3]; mRNA-encapsulating LNP, cationic lipid:DOPC:Chol = 50:10:40 (molar ratio) + DMG-PEG2k about 1 mol, Zetasizer Nano)	particle size (nm) ([3]; mRNA-encapsulating LNP, cationic lipid:DOPC:Chol = 50:10:40 (molar ratio) + DMG-PEG2k about 1 mol, dynamic light scattering)	cumulative luciferase luminescence intensity (RLU) in 24 hr ([8]; LNP cationic lipid:DOPC:Chol:DMG-PEG2k = 50:10:40:1, mRNA 0.2 µg per dish, E+0a means 10^a)	relative luminescence intensity ([8]; cumulative intensity in 24 hr relative to cationic lipid of Comparative Example)
CCCCCCCC(=O)OC(CC=CCCCCCCCC(=O)Oc1ccc(CC(=O)OCCC2CCN(CCSSCCN3CCC(CCOC(=O)Cc4ccc(OC(=O)CCCCCCCC=CCC(CCCCCC)OC(=O)CCCCC)cc4)CC3)CC2)cc1)CCCCCC (stereo not shown) [compound 162]	-3.44 mV	0.079	126 nm	superior hemolysis activity compared to the LNP containing the cationic lipid of Comparative Example	none	-5.04 mV	0.041	91.2 nm	4.43E+09 photons/sec	2.85										
CCCCCCC(C/C=C\CCCCCCCC(=O)Oc1ccc(CC(=O)OCCC2CCN(CCSSCCN3CCC(CCOC(=O)Cc4ccc(OC(=O)CCCCCCC/C=C\CC(CCCCCC)OC(=O)c5ccc(OCC)c(OCC)c5)cc4)CC3)CC2)cc1)OC(=O)c1ccc(OCC)c(OCC)c1 (stereo not shown) [compound 173]	-4.83 mV	0.035	126.1 nm			-4.4 mV	0.070	99.5 nm			9.37E+09 photons/sec	4.57								
CCCCCCCC/C=C\CCCCCCCC(=O)O[C@H](C/C=C\CCCCCCCC(=O)Oc1ccc(CC(=O)OCCC2CCN(CCSSCCN3CCC(CCOC(=O)Cc4ccc(OC(=O)CCCCCCC/C=C\C[C@H](CCCCCC)OC(=O)CCCCCCC/C=C\CCCCCCCC)cc4)CC3)CC2)cc1)CCCCCC [compound 4]													6.25							
CCCCCCCC/C=C\CCCCCCCC(=O)Oc1ccc(CC(=O)OCCC2CCN(CCSSCCN3CCC(CCOC(=O)Cc4ccc(OC(=O)CCCC(=O)OC(CC(=O)OCCCC)(CC(=O)OCCCC)CC(=O)OCCCC)cc4)CC3)CC2)cc1 [compound 58]	-4.2 mV	0.071	90.0 nm			-3.5 mV	0.065	96.6 nm			1.72E+10 photons/sec	8.40								
CCCCCCCC/C=C\CCCCCCCC(=O)Oc1ccc(CC(=O)OCCC2CCN(CCSSCCN3CCC(CCOC(=O)Cc4ccc(OC(=O)CCCC(=O)OC[C@H](COC(=O)CCCCCC)OC(=O)CCCCCC)cc4)CC3)CC2)cc1 [compound 14]									6.12E+09 photons/sec	4.03				superior hemolysis activity compared to LNP containing the cationic lipid of Comparative Example	did not exhibit hemolysis activity	0.073	-2.80 mV	92.18 nm	1.56E+08 RLU	8.44
CCCCCCCC/C=C\CCCCCCCC(=O)Oc1ccc(CC(=O)OCCC2CCN(CCSSCCN3CCC(CCOC(=O)Cc4ccc(OC(=O)CCCCCCCC(OC(=O)CC)C(CCCCCCCC)OC(=O)CC)cc4)CC3)CC2)cc1 (stereo not shown) [compound 94]	-4.45 mV	0.121	119.7 nm	superior hemolysis activity compared to the LNP containing the cationic lipid of Comparative Example	none	-2.40 mV	0.048	88.0 nm	9.40E+09 photons/sec	6.18										
